Consider 4 compounds from BindingDB's records for doi:10.7270/Q2V40SP7 (The Scripps Research Institute Molecular Screening Center, 2011).

Each structure is given as a SMILES string. pIC50: −log10 of the molar value.

One may read the pIC50 as −log10 of the IC50, conventionally taken in molar units.

This assay has as its target T1, Peroxisome proliferator-activated receptor gamma (Homo sapiens, UniProt P37231).
T1 sequence (P37231 whole entry): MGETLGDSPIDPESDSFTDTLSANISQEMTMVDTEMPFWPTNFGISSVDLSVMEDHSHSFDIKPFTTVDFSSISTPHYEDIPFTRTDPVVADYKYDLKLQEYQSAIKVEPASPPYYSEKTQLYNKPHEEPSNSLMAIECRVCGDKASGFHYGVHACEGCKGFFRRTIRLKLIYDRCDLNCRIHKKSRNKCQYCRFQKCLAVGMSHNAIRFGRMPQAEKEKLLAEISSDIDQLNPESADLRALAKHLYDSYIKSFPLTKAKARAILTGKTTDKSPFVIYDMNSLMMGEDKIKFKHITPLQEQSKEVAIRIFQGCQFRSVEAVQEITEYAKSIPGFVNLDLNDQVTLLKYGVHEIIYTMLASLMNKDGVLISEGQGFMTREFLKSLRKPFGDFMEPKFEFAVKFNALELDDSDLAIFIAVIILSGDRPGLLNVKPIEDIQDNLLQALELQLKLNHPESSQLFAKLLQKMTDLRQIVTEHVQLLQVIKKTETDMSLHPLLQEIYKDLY
The assay is described as follows: PPARg ligand-binding domain binders, dose response, PPARg partial agonist project, biochemical, TR-FRET, LanthaScreen (AID 504446). Background: In TR-FRET formats the signal depends on donor and acceptor labels being close together.
Turning to `Cc1ccc2nc(N3C(=O)C(=O)C(C(=O)c4ccc(C)o4)C3c3ccco3)sc2c1` (centres undefined), the negative-log IC50 (pIC50) was 5.59.
Regarding `CCOc1ccc2nc(N3C(=O)C(=O)C(C(=O)c4ccco4)C3c3ccco3)sc2c1` (centres undefined) [1-(6-ethoxy-1,3-benzothiazol-2-yl)-2-(2-furanyl)-3-[2-furanyl(oxo)methyl]-4-hydroxy-2H-pyrrol-5-one], the negative logarithm of the IC50 (pIC50) is 5.09. This pIC50 lies 0.50 log units lower than the previous one.
`Cc1ccc2nc(N3C(=O)C(=O)C(C(=O)c4ccco4)C3c3ccc(C)o3)sc2c1` (centres undefined) [3-[2-furanyl(oxo)methyl]-4-hydroxy-1-(6-methyl-1,3-benzothiazol-2-yl)-2-(5-methyl-2-furanyl)-2H-pyrrol-5-one;oxalic acid] gave a pIC50 of 4.85.
`COc1ccc2nc(N3C(=O)C(=O)C(C(=O)c4ccco4)C3c3ccc(C)o3)sc2c1` (centres undefined) gave a pIC50 of 5.92.
